One may read the Kd as the equilibrium constant for the complex coming apart.

This is an account of results in PubChem BioAssay AID1552 (Sanford-Burnham Center for Chemical Genomics, 2009).

The assay addresses Ubiquitin-conjugating enzyme E2 N (Homo sapiens) (UniProt P61088). Nature of the assay: UBE2N binders by NMR, biophysical, purified protein (AID 1552). As to conditions: NMR binding to purified UBE2N.

Structures are written as SMILES. Calls of active or inactive are those of the source. How the calls were made is not given here. Bounds are passed on as bounds.

Ubiquitin-conjugating enzyme E2 N (Homo sapiens), sequence (P61088 whole entry, looked up): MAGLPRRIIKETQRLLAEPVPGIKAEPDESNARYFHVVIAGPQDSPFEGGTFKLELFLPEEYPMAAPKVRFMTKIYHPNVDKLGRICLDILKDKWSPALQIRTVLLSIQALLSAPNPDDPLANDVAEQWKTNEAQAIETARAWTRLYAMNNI

Consider `Nc1nc2ncc(=O)[nH]c2c(=O)[nH]1`, for which the Kd is > 4 mM (inactive).

Take `OCc1ccc2occc2c1`: the Kd is > 4 mM (inactive).

As to `O=[N+]([O-])c1cccc2c1nnn2C(CO)OCCO` (stereo unspecified), the Kd was > 4 mM (inactive).

In the case of `COc1ccc(-c2nc(N)n(C(C)=O)n2)cc1`, the Kd is > 4 mM (inactive).

Turning to `O=C(OCc1c(Cl)cccc1Cl)c1cnccn1`, the Kd is > 4 mM (inactive).

On to `Cc1noc(C)c1C(=O)N1CCC(Cc2ccccc2)CC1`, for which the Kd was > 4 mM (inactive).

Take `S=c1[nH]cnc2sccc12`: the Kd was > 4 mM (inactive).

Turning to `CS(=O)(=O)Cc1ccccc1`, the Kd was > 4 mM (inactive).

Regarding `COc1ccc(S(=O)(=O)N2CCC(C(N)=O)CC2)cc1`, the Kd is > 4 mM (inactive).

For `COc1ccc2c(c1)[nH]c1c(C)nccc12`, the Kd is > 4 mM (inactive).

Consider `Cc1noc(C)c1C(=O)Nc1ccc2c(c1)CCC2`, for which the Kd is > 4 mM (inactive).

In the case of `O=c1cc(-c2ccc(O)cc2)oc2cc(O[C@@H]3O[C@H](CO)[C@@H](O)[C@H](O)[C@H]3O[C@@H]3OC[C@](O)(CO)[C@H]3O)cc(O)c12`, the Kd is > 4 mM (inactive).

With `Cc1c(C)n2c(SCC(N)=O)nnc2[nH]c1=O`, the Kd was > 4 mM (inactive).

Regarding `Cc1ccnc(NS(=O)(=O)c2ccccc2)n1`, the Kd is > 4 mM (inactive).

As for `Oc1ccccc1N1CCOCC1`, the Kd was > 4 mM (inactive).

Consider `CN(c1ccc(C(=O)N2CCCCC2)cc1)S(C)(=O)=O`, for which the Kd is > 4 mM (inactive).

Consider `CC(=O)O[C@H]1C[C@@H](OC(C)=O)C(C)(C)C2C[C@@H](OC(C)=O)[C@@]3(C)C4=CC(=O)O[C@@H](c5ccoc5)[C@]4(C)CCC3[C@]21C` (stereo partly specified), for which the Kd was > 4 mM (inactive).

Turning to `COc1ccccc1NC(=O)CCC(=O)O`, the Kd was > 4 mM (inactive).

Consider `Cc1cccnc1NC1=NCC(C)S1` (stereo unspecified), for which the Kd was > 4 mM (inactive).

As for `O=C1OC(N2CCOCC2)c2ccccc21` (stereo unspecified), the Kd was > 4 mM (inactive).

`O=C1CSC(=Nc2cccc(C(=O)O)c2)N1`: the Kd is > 4 mM (inactive).

For `CC1CN(Cc2ccccn2)CCC1=O` (stereo unspecified), the Kd was > 4 mM (inactive).

For the compound `N#CCSc1nnc2ccc3ccccc3n12`, the Kd is > 4 mM (inactive).

For the compound `Nc1ccc(Cc2ccc(N)cc2)cc1`, the Kd was > 4 mM (inactive).

On to `Cc1cccc(-n2c(N)cc(=O)[nH]c2=S)c1`, for which the Kd is > 4 mM (inactive).

On to `O=C1CCC(=O)N1c1ccc(O)cc1`, for which the Kd is > 4 mM (inactive).

For `CC(=O)OCc1cc(=O)n(C)c(=O)n1C`, the Kd is > 4 mM (inactive).

As to `Cc1nc2cc(Cl)ccc2n1CCO`, the Kd was > 4 mM (inactive).

Take `CC(NC(=O)c1cccnc1)c1ccc2c(c1)OCO2` (stereo unspecified): the Kd is > 4 mM (inactive).

As for `Cc1ccc2c(c1)CC[C@H]1CC(=O)CC[C@]21C`, the Kd was > 4 mM (inactive).

For `COc1ccc(C(=O)NCC(=O)O)cc1`, the Kd is > 4 mM (inactive).

Regarding `Cc1nc(SCC(=O)c2c[nH]c3ccccc23)n[nH]1`, the Kd is > 4 mM (inactive).

For the compound `OCn1nnn(-c2ccccc2)c1=S`, the Kd was > 4 mM (inactive).

`Nc1nncn1C(=O)c1ccccc1Cl`: the Kd was > 4 mM (inactive).

With `c1ccc(C[N+]23CCN(CC2)c2ccccc23)cc1`, the Kd is > 4 mM (inactive).

As for `C=C[C@@](C)(O)CCC1C(=C)C[C@H](O)C2C(C)(C)CCCC12C` (stereo partly specified), the Kd was > 4 mM (inactive).

On to `O=c1c2ccccc2nc(-c2ccco2)n1-c1nccs1`, for which the Kd is > 4 mM (inactive).

`NC(=O)CS(=O)(=O)c1ccc2ccccc2c1`: the Kd is > 4 mM (inactive).

In the case of `CCCNC(=O)CSc1nnc(C)s1`, the Kd is > 4 mM (inactive).

`Cc1cc2ncc(C(=O)O)c(C)n2n1`: the Kd is > 4 mM (inactive).

Turning to `S=c1ccc(N2CCCCC2)n[nH]1`, the Kd is > 4 mM (inactive).

With `O=C1NNC(=O)C2C3c4ccccc4C(c4ccccc43)C12` (stereo unspecified), the Kd was > 4 mM (inactive).

On to `Cc1nc2ccccc2c(=O)n1-c1cccc(O)c1`, for which the Kd is > 4 mM (inactive).

For `CP(C)(=O)CCC(=O)O`, the Kd is > 4 mM (inactive).

On to `O=C(Cc1c(F)cccc1Cl)Nc1ccncc1`, for which the Kd was > 4 mM (inactive).

Turning to `Cc1sc2nc(-c3ccco3)oc(=O)c2c1C`, the Kd was > 4 mM (inactive).

Take `O=C(c1ccco1)N1CCCN(C(=O)c2ccco2)CC1`: the Kd is > 4 mM (inactive).

`COc1cccc(C(=O)Nc2c(C)n[nH]c2C)c1`: the Kd was > 4 mM (inactive).

`Cc1cc(NC(=O)c2ccccc2C(=O)O)no1`: the Kd was > 4 mM (inactive).

Turning to `O=S(=O)(Nc1cccnc1Cl)c1ccccc1`, the Kd is > 4 mM (inactive).

For the compound `Cc1cccc(C)c1N1C(=O)CCC1=O`, the Kd was > 4 mM (inactive).

On to `CCc1ccccc1NC(=O)c1ccoc1C`, for which the Kd was > 4 mM (inactive).

For the compound `O=C(Nc1ccc2c(c1)OCO2)c1ccc(=O)[nH]n1`, the Kd was > 4 mM (inactive).

`CN(C)/C=N/S(=O)(=O)c1ccccc1`: the Kd was > 4 mM (inactive).

On to `N=c1c2c3c(sc2ncn1N)CCCC3`, for which the Kd is > 4 mM (inactive).

Take `Cc1c(N=Cc2ccco2)c(=O)n(-c2ccccc2)n1C`: the Kd was > 4 mM (inactive).

As to `C=CCN1CC[C@]23c4c5ccc(O)c4OC2C(=O)CC[C@@]3(O)[C@H]1C5` (stereo partly specified), the Kd was > 4 mM (inactive).

For the compound `Cc1oc(-c2ccccc2)cc1C(N)=O`, the Kd was > 4 mM (inactive).

Take `O=C(O)CCc1ccc2c(c1)OCO2`: the Kd was > 4 mM (inactive).

For the compound `Cc1oc(-c2ccccc2)cc1C(=O)O`, the Kd is > 4 mM (inactive).

Take `CN1CCN(c2ccc(CN)cc2)CC1`: the Kd is > 4 mM (inactive).

Regarding `Cc1cc(O)cc(O)c1C(=O)O`, the Kd is > 4 mM (inactive).

With `CC(=O)NCc1nc2ccccc2[nH]1`, the Kd is > 4 mM (inactive).

As to `Cc1ccc(C)n1/N=C1\NC(=O)CS1`, the Kd was > 4 mM (inactive).

Turning to `CCOC(=O)c1[nH]c(C)cc1C`, the Kd is > 4 mM (inactive).

Take `O=C(O)CC1C(=O)NCCN1Cc1ccccc1` (stereo unspecified): the Kd was > 4 mM (inactive).

For the compound `Cc1cc(C)n2nc(C(=O)NCc3ccco3)nc2n1`, the Kd was > 4 mM (inactive).

Regarding `c1ccc(CCc2nc(-c3cccnc3)no2)cc1`, the Kd is > 4 mM (inactive).

Take `CC(=O)C1CC[C@H]2C3CC[C@H]4C[C@H](O)CC[C@]4(C)C3CC[C@]12C` (stereo partly specified): the Kd was > 4 mM (inactive).

Consider `COc1ccc2c(c1)C(NC(C)=O)C(=O)N2C` (stereo unspecified), for which the Kd is > 4 mM (inactive).

As to `C[C@@H]1CC[C@@]2(OC1)OC1CC3C4CC=C5C[C@@H](O)CC[C@]5(C)C4CC[C@]3(C)C1[C@@H]2C` (stereo partly specified), the Kd is > 4 mM (inactive).

Turning to `Nc1cc(F)cc(F)c1`, the Kd is > 4 mM (inactive).

As for `Cc1n[nH]c(=S)n(/N=C/c2ccccc2)c1=O`, the Kd was > 4 mM (inactive).

For the compound `COc1ccc(/C=N/n2cn[nH]c2=S)cc1`, the Kd was > 4 mM (inactive).

Regarding `Cc1cc(=O)cc(C)n1-c1ccccc1N`, the Kd is > 4 mM (inactive).

As for `OCc1cccc2c1OCCO2`, the Kd is > 4 mM (inactive).
